Common to all, as to type: cell-based, human
Assay [1] has as its system iASPP modification and p53-iASPP binding in WM278 cells. Nature of the assay: iASPP modification and p53 co-immunoprecipitation in WM278 cells. As to conditions: 0.4 μM JNJ or 10 μM nocodazole overnight. How it is done:
(§1) For WB, cells were lysed in buffer containing 8 M urea, 1 M thiourea, 0.5% CHAPS, 50 mM DTT, and 24 mM spermine. A total of 40 μg of protein extract was loaded per lane into SDS-polyacrylamide gels. Gels were transferred onto nitrocellulose membrane (Protran) and the resulting blots incubated first with primary antibody overnight at 4° C. and then with the appropriate secondary horseradish peroxidize-conjugated antibody (Dako). The results were visualized by enhanced chemiluminescent detection (Amersham Biosciences) using X-ray film (Fujifilm). For cell lysate immunoprecipitation, cells were dissolved in NP40 buffer (50 mM Tris-HCl pH 8.0, 150 mM NaCl, 1% NP-40) with protease inhibitor cocktail mix (Roche Diagnostics). Cells were further thoroughly broken by ultrasonication, followed by spinning for 1 hour. Achieved suspension was adjusted to 1-2 mg/ml using NP40 buffer and incubated with 20 μl nickel beads, glutathione beads, or protein A beads (with 2 μg required antibody) for 2 h at room temperature. The beads were washed for four times with NP40 buffer, boiled for 5 min in Laemmli sample buffer, and applied for Western blotting. For pure protein immunoprecipitation, 5-10 μg purified proteins were mixed in NP40 buffer with 1 mg/ml BSA for 2 h at room temperature.

Assay [2] concerns slow-migrating iASPP in melanoma cell lines. Briefly: induction of slow-migrating iASPP in melanoma cell lines (WB). As to conditions: panel of melanoma cell lines, nocodazole overnight. How it is done:
FIG. 3. Mitotic arrests induces slow-migrating nuclear iASPP. A. Mitosis-arresting (i.e., apoptosis-inducing) chemotherapeutic drugs induce slow-migrating iASPP. H1299 cells were treated overnight with the indicated concentrations of mitosis-arrest drugs nocodazole, colchicine and taxol, DNA damaging drugs, or oxidative stress inducers (1-3 h). Total lysate was prepared in UREA buffer, and iASPP expression patterns were determined using antibody LX49.3. B. Slow-migrating iASPP exclusively exists in mitotic cells after drug induction. Mitotic-arrest drugs were applied to H1299 cells to induce iASPP mobility shift. Floating and adherent cells were collected, and iASPP expression pattern was determined by western blotting (WB). C. Slow-migrating iASPP exists in natural mitotic cells and localized in nucleus (as determining by staining with the nuclear specific marker Topro). Left panel, cells in mitosis (floating) and interphase (adherent) were collected by mitotic shake-off, and iASPP expression pattern was determined by WB. Right panel, H1299 cells after Taxol treatment, or mitotic shake-off were immunofluorescence stained using antibody LX49.3. […] Melanoma cells were treated with nocodazole overnight and iASPP expression patterns from total cell lysate was determined by WB. […]

The subject of assay [3] is slow-migrating iASPP in H1299 cells. Nature of the assay: induction of slow-migrating iASPP by chemotherapeutic agents in H1299 cells (WB). As to conditions: H1299, overnight treatment (oxidative stress inducers 1-3 h; EDTA 4 mM 1 hour), antibody LX49.3. The protocol: FIG. 3. […] H1299 cells were treated overnight with the indicated concentrations of mitosis-arrest drugs nocodazole, colchicine and taxol, DNA damaging drugs, or oxidative stress inducers (1-3 h). Total lysate was prepared in UREA buffer, and iASPP expression patterns were determined using antibody LX49.3. […] Mitotic-arrest drugs were applied to H1299 cells to induce iASPP mobility shift. Floating and adherent cells were collected, and iASPP expression pattern was determined by western blotting (WB). C. […] Left panel, cells in mitosis (floating) and interphase (adherent) were collected by mitotic shake-off, and iASPP expression pattern was determined by WB. Right panel, H1299 cells after Taxol treatment, or mitotic shake-off were immunofluorescence stained using antibody LX49.3. In mitotic shake-off experiment, mitotic shake-off cells were cytospun to slides; the remaining adherent cells after shaking were scraped off and used as interphase control. […] Melanoma cells were treated with nocodazole overnight and iASPP expression patterns from total cell lysate was determined by WB.
FIG. 4. A. Floating and adherent H1299 cells separately collected by mitotic shake-off (FIG. 3C) were stained with propidium iodide (PI), followed by FACS analysis. […] B. H1299 cells were subjected to treatment of 10 μM nocodazole for 24 hours (Nocodazole), on ice for 30 minutes (Cold shock), or 4 mM EDTA for 1 hour (EDTA). Left panel: iASPP expression pattern was analysed by immunoblotting. Right panel: phase contrast images were taken before collection of the cells for WB analysis. Bar=20 μm.
as §1
As mitotic cells often detach from the tissue culture dish, floating cells were separated from adherent cells after the treatment of Nocodozole, Taxol and Colchicine.

SMILES strings stand for the structures.

Consider `COC(=O)Nc1nc2ccc(C(=O)c3cccs3)cc2[nH]1` [Nocodazole], for which, in assay [1], the “amount of modified iASPP” value is recorded as “induced iASPP modification”. Further, the “induction of slow-migrating iASPP isoform” value in assay [2] is reported as “induced the conversion of faster migrating iASPP into the slower migrating iASPP isoform”; in assay [3] it was “induced”.

(Values after patent US9880171B2, “iASPP phosphorylation and metastatic potential” (LUDWIG INSTITUTE FOR CANCER RESEARCH LTD., priority 2012, dated 2018).)
